Data: the METLIN SMRT retention time set (Domingo-Almenara et al. 2019)

Assay: gradient 5% acetonitrile 3 min, to 50% in 2 min, to 85% in 15 min, held 3 min, 100 µL/min
Conditions: column: Zorbax Extend-C18 2.1 x 50 mm; eluents: water / acetonitrile, 0.1% formic acid
In short: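 Standards, all pure, were combined into mixtures of ~100 molecules and run at 100 μL/min on a Zorbax Extend-C18 column (2.1 × 50 mm, 1.8 μm) with water and acetonitrile, each containing 0.1% formic acid. A coupled quadrupole time-of-flight mass spectrometer operated in positive and negative ionization mode. Retention time values come from computationally picked adduct peaks, each inspected manually.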
`CCOc1cc(C(=O)Nc2nnc(-c3ccc(Cl)s3)o2)cc(OCC)c1OCC` showed an RP-LC retention time of 986 s. `CC(C)C(=O)Nc1ccc(CCc2nc3ccc(C(=O)NCc4ccc5c(c4)OCO5)cc3[nH]2)cc1` gave an RP-LC retention time of 669 s. With `Cc1nn(Cc2ccc(C(=O)NC(C)C)cc2)c(C)c1S(=O)(=O)N1CCC(C)CC1` the RP-LC retention time was 880 s. Molecule `Cc1ccc(S(=O)(=O)N2CCc3nc(-c4ccccc4)ncc3C2)c(C)c1` has an RP-LC retention time of 1170 s. With `Cc1nnc(-c2cc(NC(=O)c3cc(F)ccc3Cl)c(C)s2)o1` the RP-LC retention time was 955 s. With `COc1ccc(OC)c(NC(=O)N2CCC3(CC2)N=C(c2ccc(Cl)cc2)C(=O)N3)c1` the RP-LC retention time was 922 s. For `CN1C(=O)c2cccn2CC1CNC(=O)c1n[nH]c(=O)c2ccccc12` (stereo unspecified), the RP-LC retention time was 764 s. With `CC(C)OC(=O)COC(=O)c1cn(-c2cccc(F)c2)c(=O)c2ccccc12` the RP-LC retention time was 1110 s. Molecule `Cc1ccc2c(c1)C(c1ccccc1)N(C(=O)c1ccc([N+](=O)[O-])cc1)CC(=O)N2` (stereo unspecified) has an RP-LC retention time of 834 s. With `CSc1ccc(CCNC(=O)C2CCCN(C(=O)Cc3cccc4ccccc34)C2)cc1` (stereo unspecified) the RP-LC retention time was 971 s. For `COCCCNC(=O)N1CCCN(C2=NS(=O)(=O)C(c3ccc(C)cc3)=C2C)CC1`, the RP-LC retention time was 730 s. Work on `CCn1c(CN2CCN(S(C)(=O)=O)CC2)nc2cc(NC(=O)C(C)C)ccc21` yielded an RP-LC retention time of 612 s. `Cc1sc(NC(=O)CCC2CCCCC2)nc1-c1ccc2c(c1)NC(=O)CO2` showed an RP-LC retention time of 1060 s. Molecule `Cc1cccc(C(=O)N2CCc3cc(CNS(=O)(=O)c4ccc5c(c4)CC(=O)N5C)ccc32)c1` has an RP-LC retention time of 836 s. `COc1ccc(OC)c(NC(=O)N2CCCC(C)(C(=O)NCc3ccccc3C)C2)c1` (stereo unspecified) showed an RP-LC retention time of 912 s. With `Cc1ccccc1C(=O)N1CCC2(CC1)NCc1ccccc1-n1ccnc12` the RP-LC retention time was 609 s. In the case of `CCNc1cc(-n2cccn2)ncn1`, the RP-LC retention time was 666 s. In the case of `CC(=O)Nc1ccc2c(c1)nc(CN1CCOCC1)n2C(C)C`, the RP-LC retention time was 579 s. Molecule `CCOc1ccccc1CNC(=O)CCc1nnc2c3cc(-c4ccc(OC)cc4)nn3ccn12` has an RP-LC retention time of 797 s. In the case of `O=C(Nc1ccccc1)c1nnc(CSCC(=O)N2CCN(c3ccccn3)CC2)s1`, the RP-LC retention time was 631 s. `COc1ccc(-c2c(C(=O)Nc3ccccc3OC)nc3ccccn23)cc1` showed an RP-LC retention time of 991 s. For `Cc1ccc(C)c(CS(=O)(=O)N2CCC(CN3CCCCCC3)CC2)c1`, the RP-LC retention time was 700 s. `O=C(NCc1csc(C2CCN(C(=O)c3cc(F)ccc3F)CC2)n1)C1CC1` gave an RP-LC retention time of 668 s. For `O=C(C1CC1)N1CCC(N(Cc2cccnc2)C2CCOCC2)CC1`, the RP-LC retention time was 550 s. Work on `O=C(Nc1ccc(F)c(F)c1)C1CCCN(S(=O)(=O)Cc2ccc(F)cc2)C1` (stereo unspecified) yielded an RP-LC retention time of 990 s. `O=C(Nc1cc(-c2ccccn2)no1)c1ccc2ccccc2n1` showed an RP-LC retention time of 965 s. Work on `O=C(Cc1ccccc1Cl)NCCn1cnc(-c2ccccc2)cc1=O` yielded an RP-LC retention time of 715 s. Work on `CCC(C(=O)NCCCN1CCN(C)CC1)n1c2ccccc2c2cnn(C)c(=O)c21` (stereo unspecified) yielded an RP-LC retention time of 560 s. In the case of `Cc1ccc(NC(=O)N2CCC3(CC2)NC(=O)c2ccccc2O3)cc1C`, the RP-LC retention time was 812 s. Molecule `Cc1cc(=O)n(CC(=O)Nc2ccc(Cl)cc2)c(N2CCC(C)CC2)n1` has an RP-LC retention time of 758 s. `Cc1cc(C)c(CNC(=O)c2c(C)sc3ccn(C)c(=O)c23)c(C)c1` showed an RP-LC retention time of 921 s. Molecule `CSc1ccc(CNC(=O)c2[nH]c3cc(C)sc3c2CN(C)C)cc1` has an RP-LC retention time of 689 s. Molecule `CS(=O)(=O)N(C1CCOCC1)C1CN(C(=O)COc2ccccc2)C1` has an RP-LC retention time of 692 s. `COc1ccccc1CCNC(=O)Cn1cc(S(=O)(=O)c2ccccc2)c2ccccc21` gave an RP-LC retention time of 898 s. Work on `CC1CCN(C(=O)C2CCCN(c3ccnc(-c4ccc(F)cc4)n3)C2)CC1` (stereo unspecified) yielded an RP-LC retention time of 706 s. Molecule `COc1ccc(NC2=NCCO2)c2c1CCCC2` has an RP-LC retention time of 640 s. With `CCN(CC)C(=O)CN1C(=O)C2CCCCN2c2ccc(S(=O)(=O)N3CCCC3)cc21` (stereo unspecified) the RP-LC retention time was 832 s. In the case of `O=c1[nH]c2ccccc2nc1-c1cc(Cl)ccc1NS(=O)(=O)c1ccccc1`, the RP-LC retention time was 895 s. `COc1ccc2[nH]c(=O)c(CCC(=O)Nc3ccc(OC)c(OC)c3)cc2c1` showed an RP-LC retention time of 666 s. `Cc1cccc(NC(=O)C2CCN(S(=O)(=O)c3cc(C(=O)N4CCCC4)n(C)c3)CC2)c1C` showed an RP-LC retention time of 843 s. Molecule `O=C(Cc1ccccc1)NC1CCN(c2cc(-c3cccs3)[nH]n2)C1` (stereo unspecified) has an RP-LC retention time of 741 s. In the case of `Cc1ccc(NC(=O)N2CCCC(C)(C(=O)NCc3ccc(F)cc3)C2)c(Cl)c1` (stereo unspecified), the RP-LC retention time was 1010 s. `COC(=O)Nc1ccc(S(=O)(=O)N2CCCC(C(=O)O)C2)cc1` (stereo unspecified) gave an RP-LC retention time of 640 s. `O=c1oc2cc(O)ccc2s1` showed an RP-LC retention time of 771 s. In the case of `CCNS(=O)(=O)c1cccnc1Nc1ccc(Cl)c(F)c1`, the RP-LC retention time was 1090 s. Molecule `CC(C)Cn1cc2c3c(cccc31)CN(C(=O)Nc1ccc(F)cc1)CC2` has an RP-LC retention time of 1070 s. In the case of `Cc1ccc(N2C(=O)c3cccnc3C2CC(=O)N2CCN(c3ccccn3)CC2)cc1` (stereo unspecified), the RP-LC retention time was 579 s. Molecule `O=C(C1CCN(c2ccc(-n3cccn3)nn2)CC1)N1CCN(c2ncccn2)CC1` has an RP-LC retention time of 605 s. Molecule `Cc1cc(C)n(-c2nc(C)c(C)c(=O)n2CC(=O)N2CCCc3ccccc32)n1` has an RP-LC retention time of 907 s. With `Cc1ccc(-c2ccc(-n3nc(C)c(S(=O)(=O)NC4CC4)c3C)nn2)cc1` the RP-LC retention time was 944 s. For `COCCNC(=O)C1CCN(c2nc3ccc(-c4ccsc4)nc3s2)CC1`, the RP-LC retention time was 774 s. Molecule `Cc1ccccc1-n1c(=O)c2sccc2n(Cc2nc(-c3cccc(C(F)(F)F)c3)no2)c1=O` has an RP-LC retention time of 1100 s. Molecule `Cc1ccc(-c2nc3ncccn3c2NCc2ccc(F)cc2)cc1` has an RP-LC retention time of 755 s. For `COc1ccc(C2CCN(S(C)(=O)=O)CC2)cc1`, the RP-LC retention time was 845 s. In the case of `CCOc1ccc(CC(=O)N2CC(C(=O)NC)C3(CCCC3)C2)cc1OCC` (stereo unspecified), the RP-LC retention time was 726 s. `O=C(c1ccccn1)N1CCCn2cc(-c3ccccc3)nc21` showed an RP-LC retention time of 620 s. `O=C(NC1CC(=O)N(C2CC2)C1)c1cnc2ccccc2n1` (stereo unspecified) gave an RP-LC retention time of 594 s. Molecule `CC(NC(=O)CN1CN(c2ccccc2)C2(CCN(C(=O)CC(C)(C)C)CC2)C1=O)c1ccccc1` (stereo unspecified) has an RP-LC retention time of 931 s. `CCn1ccc(C(=O)N2CCC(n3c(C)cnc3C3CCC3)C2)n1` (stereo unspecified) gave an RP-LC retention time of 576 s. `CC(C)N1C(=O)c2cccnc2Sc2cc(NC(=O)Cc3ccccc3F)ccc21` showed an RP-LC retention time of 858 s. Molecule `Cc1nc(-c2ccccc2)sc1C(=O)N1CCN(c2ccc(-n3ccnc3C)nn2)CC1` has an RP-LC retention time of 572 s. Molecule `CC1=C(c2ccc(Cl)cc2)S(=O)(=O)N=C1N1CCCN(C(=O)C(C)C)CC1` has an RP-LC retention time of 822 s. In the case of `CN(C)CCNC(=O)c1ccc2ccnc(N3CCN(C(=O)c4ccco4)CC3)c2c1`, the RP-LC retention time was 557 s. For `Cc1ccc(CNC(=O)Cn2c(C)cc(-c3nnc(C4CCC4)o3)c2C)cc1`, the RP-LC retention time was 903 s. Work on `COc1ccccc1NC(=O)C1CCCN(S(=O)(=O)c2c[nH]c(C(=O)N3CCCCCC3)c2)C1` (stereo unspecified) yielded an RP-LC retention time of 898 s. For `COc1ccc(NC(=O)N2[C@H]3CC[C@@H]2c2cnc(C)nc2C3)cc1OC`, the RP-LC retention time was 611 s.
